Data from PubChem BioAssay (NCI).
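Each compound was tested at five concentrations against cells in 96-well plates for 48 hours. The concentration for 50% growth inhibition is given as GI50. TGI: concentration producing complete growth inhibition.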

Experiments:
Test in all cases: NCI-60 cell line screen, 48 h
[1] = tested on: 786-0 renal
[2] = tested on: A549 NSCLC
[3] = tested on: ACHN renal
[4] = tested on: DU-145 prostate
[5] = tested on: HCT-15 colon
[6] = tested on: HS 578T breast
[7] = tested on: MDA-MB-231 breast
[8] = tested on: SK-OV-3 ovarian
[9] = tested on: SNB-19 CNS
[10] = tested on: SR leukemia

| SMILES | TGI [1] | TGI [2] | TGI [3] | TGI [4] | TGI [5] | TGI [6] | TGI [7] | TGI [8] | TGI [9] | TGI [10] | GI50 [1] | GI50 [2] | GI50 [3] | GI50 [8] | GI50 [9] | GI50 [4] | GI50 [5] | GI50 [6] | GI50 [7] | GI50 [10] |
| --- | --- | --- | --- | --- | --- | --- | --- | --- | --- | --- | --- | --- | --- | --- | --- | --- | --- | --- | --- | --- |
| NC(Cc1cc(Br)c(O)c(Br)c1)C(=O)O (centres undefined) | > 100 µM | > 100 µM | > 100 µM | > 100 µM | > 100 µM | > 100 µM | > 100 µM | > 100 µM | > 100 µM | > 100 µM |  |  |  |  |  |  |  |  |  |  |
| CCC[CH2][Sn]([CH2]CCC)([O]C(=O)c1cc(OC)c(OC)c(OC)c1)[O]C(=O)c1cc(OC)c(OC)c(OC)c1 | 2.57 µM | 13.8 µM | 2.98 µM |  |  |  |  | 3.25 µM | 1.54 µM |  | 1.29 µM | 3.59 µM | 1.59 µM | 1.69 µM | 0.464 µM |  |  |  |  |  |
| COc1ccc(C2=C(Br)C(=O)OC2)cc1Cl | > 100 µM | 53.6 µM | 39.9 µM | 88.9 µM | > 55.1 µM | > 88.5 µM | 69.9 µM | > 66.9 µM | > 100 µM | > 100 µM | 34 µM | 18.5 µM | 19.3 µM |  | 10.6 µM | 20.8 µM | 19.4 µM | 41.2 µM | 24.7 µM | 22.1 µM |
| CCCCCCCCC(=O)CCCCCCCCC(=O)O | 64.3 µM | 45.2 µM | 59.8 µM |  |  |  |  | > 100 µM | > 100 µM | 42.5 µM |  |  |  |  |  |  |  |  |  |  |
| CC(=O)c1cc2c3c(c1)c1cc4c(cc1c(=O)n3CC2)OCO4 | > 100 µM | > 100 µM | > 100 µM |  | > 100 µM |  |  | > 100 µM | > 100 µM | 34.9 µM |  |  |  |  |  |  |  |  |  |  |
| Cc1c(NC(=O)CCCl)c(=O)oc2c(C)c3occc(=O)c3cc12 | > 100 µM | > 100 µM | > 100 µM | > 100 µM | > 100 µM | > 100 µM |  | > 100 µM | > 100 µM | > 100 µM |  |  |  |  |  |  |  |  |  |  |
| COC(=O)C(=C\Sc1ccccc1)/C=C/C(=O)OC(C)(C)C | 10.9 µM | 42 µM | 17.2 µM |  | 17.7 µM |  |  | 43.9 µM | 15.3 µM | 21 µM |  |  |  |  |  |  |  |  |  |  |
| O=S1Cc2ccccc2CS1 (centres undefined) | 29.2 µM | > 100 µM | > 100 µM |  | > 100 µM |  |  | > 100 µM | > 100 µM | 64.4 µM |  |  |  |  |  |  |  |  |  |  |
| O=c1oc2c(Br)c(O)c(Br)cc2c2ccccc12 | > 100 µM | 87.1 µM | > 100 µM | 70.8 µM | 42.9 µM | 66.2 µM | 66.1 µM |  | 93.4 µM | 71.6 µM |  |  |  |  |  |  |  |  |  |  |
| NC(=O)c1ncn(C2OC(CO)C(O)C2O)n1 (centres undefined) | > 100 µM | > 100 µM | > 100 µM | > 100 µM | > 100 µM | > 100 µM | > 100 µM | > 100 µM |  | > 100 µM | > 100 µM | 62 µM | 59.8 µM | > 100 µM |  | 39.6 µM | 38.4 µM | > 100 µM | > 100 µM | > 100 µM |
| Cc1cc(NC(=O)NC(=O)c2ccccc2[N+](=O)[O-])ccc1Oc1ncc(Cl)cn1 | 26.4 µM | > 100 µM | 42.1 µM | > 100 µM | > 100 µM |  | 26.9 µM | 24.1 µM | > 66.2 µM |  |  |  |  |  |  |  |  |  |  |  |
| COC(=O)C1=C(C(=O)Nc2cccnc2)C2OC1(C(Cc1ccccc1)Oc1ccccc1)C1OC21 (centres undefined) | 3.33 µM | 31.2 µM | 3 µM | 3.27 µM |  | 49.9 µM | 6.52 µM | 48.2 µM | 28.8 µM | 5.13 µM | 1.69 µM | 17.1 µM | 1.49 µM | 18.3 µM | 14.8 µM | 1.77 µM |  | 18.6 µM | 2.77 µM | 0.918 µM |
| CC(/C=C/C=C/C=C/C=C/C=C/C(O)=C1/C(=O)C(CCC(=O)O)N(C)C1=O)=C\C(C)C(OC1CC(O)C(O)C(C)O1)C(C)C (centres undefined) | 11.1 µM | 10.5 µM | 10.4 µM | 12.4 µM | 19.4 µM | 32.3 µM | 12.2 µM |  | 9.44 µM | 40.2 µM |  |  |  |  |  |  |  |  |  |  |
| COC(=O)C1C2CC3C(OC(=O)C31)C2I (centres undefined) | > 100 µM | > 100 µM | > 100 µM |  | > 100 µM |  |  | > 100 µM | > 100 µM | > 100 µM |  |  |  |  |  |  |  |  |  |  |
| Nc1ccn(C2OC(CO[P+](=O)OC3C(CO[P+](=O)OC4C(CO[P+](=O)OC5C(CO[P+](=O)OC6C(CO[P+](=O)OC7C(CO[P+](=O)OC8C(CO[P+](=O)OC9C(CO[P+](=O)OC%10C(CO[P+](=O)OC%11C(CO)OC(n%12ccc(N)nc%12=O)C%11(F)F)OC(n%11ccc(N)nc%11=O)C%10(F)F)OC(n%10ccc(N)nc%10=O)C9(F)F)OC(n9ccc(N)nc9=O)C8(F)F)OC(n8ccc(N)nc8=O)C7(F)F)OC(n7ccc(N)nc7=O)C6(F)F)OC(n6ccc(N)nc6=O)C5(F)F)OC(n5ccc(N)nc5=O)C4(F)F)OC(n4ccc(N)nc4=O)C3(F)F)C(O)C2(F)F)c(=O)n1 (centres undefined) | > 100 µM | > 100 µM |  | 0.13 µM |  |  | > 100 µM | > 100 µM | > 100 µM | 0.507 µM | 0.0605 µM |  |  | 0.255 µM |  | 0.0239 µM | 0.704 µM | > 100 µM | 0.522 µM |  |
| S=C1CNC(=S)CN1 | > 100 µM | > 100 µM | > 100 µM |  | > 100 µM |  |  | > 100 µM | > 100 µM | > 100 µM |  |  |  |  |  |  |  |  |  |  |
| NCC(=O)Nc1ccc(-n2nc(C(F)(F)F)cc2-c2ccc3c(ccc4ccccc43)c2)cc1 | 3.06 µM | 2.41 µM | 2.54 µM | 2.62 µM | 1.71 µM |  | 2.87 µM | 2.54 µM |  | 2.35 µM | 1.47 µM | 0.959 µM | 1.23 µM | 1.27 µM |  | 1.32 µM | 0.142 µM |  | 1.35 µM | 0.342 µM |
| COC(=O)C1=C2C3=C(C(=O)c4ccccc4C3=O)N(Cc3ccccc3)C2(OC(C)=O)C=CC1=O (centres undefined) | 10.1 µM | > 100 µM | 26.4 µM | 61.9 µM | 53.9 µM | 71.3 µM | 8.05 µM | > 100 µM | > 100 µM |  | 2.28 µM | 27.6 µM | 8.4 µM | 27.6 µM | 31.3 µM | 14.8 µM | 14.1 µM | 22 µM |  |  |
| c1ccc2c(c1)nnn1c3cnccc3nc21 | > 100 µM | > 100 µM | > 100 µM |  | 80 µM |  |  | > 100 µM | > 100 µM |  |  |  |  |  |  |  |  |  |  |  |
| Nc1ccccc1C#Cc1ccccc1C#Cc1ccccc1N | 31.2 µM | > 100 µM | 29.7 µM | 28.6 µM | 16.8 µM |  | 24.6 µM | 35.5 µM | 65.8 µM |  | 11.9 µM | 22.1 µM | 14 µM | 15.1 µM | 23.3 µM | 11.3 µM | 3.42 µM |  | 9.04 µM |  |
